Literature values in patent publication US8691571B1, “Extending tissue preservation” (University of South Florida, priority 1998, dated 2014).

Tested on: rabbit cornea
Settings: addition to storage medium; without changing metabolic activity for at least 11 days

## CC(O)CC(=O)O (stereo not drawn) [beta-hydroxy butyrate]
  diminished lactic acid concentration of rabbit cornea: 85%
